{
  "source": "paper PMC9415509",
  "about": "“Pro-Apoptotic Antitumoral Effect of Novel Acridine-Core Naphthoquinone Compounds against Oral Squamous Cell Carcinoma” (Molecules, 2022)",
  "key": {"[1]": {"tested_on": "SCC9 (OSCC cell)", "assay": "MTT cell viability assay (cytotoxicity), SCC9", "format": "cell-based, human", "description": "(§1) Cells and reagents. Human SCC-4, SCC-9, and SCC-25 cells, derived from a human oral tongue SCC (squamous cell carcinoma) were obtained from the ATCC (CRL-1624, CRL-1629, and CRL-1628, respectively) and maintained in 1:1 DMEM/F12 (Dulbecco’s modified Eagle medium and Ham’s F12 medium; Gibco (Thermo Fisher, Waltham, MA, USA)) supplemented with 10% (v/v) FBS (fetal bovine serum; Invitrogen, Thermo Fisher, Waltham, MA, USA) and 400 ng/mL hydrocortisone (Sigma-Aldrich Co., St. Louis, MO, USA). Primary normal human gingival fibroblasts were obtained from the ATCC (PCS-201-018) and maintained in DMEM supplemented with 10% (v/v) FBS and were used in a maximum of six passages. The cells were grown in a humidified environment containing 5% CO2 at 37 °C. […] Carboplatin stock was prepared in water (Fauldcarbo®; LibbsFarmacêutica, São Paulo, SP, Brazil) and was used as a standard anticancer compound.\n(§2) Cell viability assay (cytotoxicity) and compound stability assay. The viability of SCC cell lines and primary human fibroblast cells was evaluated using the MTT assay as in [48]. Briefly, the cells were grown in triplicates in 96-well plates (5 × 10^3 cells/well) until confluence. Then, the medium was removed, fresh medium was added, and the cells were returned to the incubator in the presence of different compounds. DMSO at the same concentrations was used as a 100% cell viability control. After 48 h, the cells were incubated with 5 mg/mL MTT reagent (3-(4,5-dimethyl-2-thiazolyl)-2,5-diphenyl-2-H-tetrazolium bromide) (Sigma-Aldrich Co., St. Louis, MO, USA) for 3.5 h. After that, formazan crystals were dissolved in MTT solvent solution (DMSO/methanol 1:1 v/v) and the absorbance at 560 nm was evaluated using an EPOCH microplate spectrophotometer (BioTek Instruments, Winooski, VT, USA) with the background absorbance at 670 nm subtracted.\n(§3) Statistical analysis, IC50 calculation. The data are presented as means ±\\SD. IC50 values for the MTT assays were obtained by nonlinear regression using the […] 5.0 program (Intuitive Software for Science, San Diego, CA, USA) from at least three independent experiments. A dose–response (inhibitor) vs. response curve using the least squares method was used to determine the IC50, SD, and R^2 of the data. The selectivity index was calculated as SI = IC50 of the compound in normal oral fibroblast cells/IC50 of the same compound for each oral cancer cell line (SCC-4, SCC-9, and SCC-25) and the mean was calculated when indicated."}, "[2]": {"tested_on": "SCC4 OSCC cell line", "assay": "MTT cell viability assay (cytotoxicity), SCC4", "format": "cell-based, human", "description": "as §1, §2, §3"}, "[3]": {"assay": "Hemolysis assay", "format": "cell-based", "settings": "human, human erythrocytes, relative to triton x-100 = 100% lysis", "description": "Hemolysis assay. To determine the surfactant power of substances in biological membranes, a hemolysis assay was performed using human blood approved by the Research Ethics Committee of Universidade Federal Fluminense (CAAE: 43134721.4.0000.5626). Erythrocytes were collected for centrifugation at 1500 rpm for 15 min, washed with PBS (phosphate-buffered saline) supplemented with 10 mM glucose, and counted in an automatic cell counter (Thermo Fisher, Waltham, MA, USA). Erythrocytes were then plated in 96-well plates at a concentration of 4 × 10^8 cells/well in triplicates, and 10 µL of compounds was added at a final concentration of 300 µM in PBS with glucose (final volume 100 µL). In total, 10 µL of PBS was used as a negative control and 10 µL of PBS with 0.1% Triton ×100 as a positive control. Data reading was performed with EPOCH (BioTek Instruments, Winooski, VT, USA) at an absorbance of 540 nm, and the statistical data were generated using the […] Prism 5.0 program (Intuitive Software for Science, San Diego, CA, USA)."}, "[4]": {"tested_on": "SCC9 cells", "assay": "SubG1 analysis (DNA fragmentation), flow cytometry", "format": "cell-based, human", "settings": "SCC9, 72 h of treatment, PI staining", "description": "Cell cycle and SubG1 analysis. To evaluate the action of compound 4e on the cell cycle and DNA fragmentation, cells of the SCC9 cell line were plated in a 6-well plate (5 × 10^5 cells/well). After 48 (cell cycle) or 72 h (DNA fragmentation) of treatment, the cells were trypsinized and stained with propidium iodide (75 µM) in the presence of NP-40. The DNA content was analyzed by collecting 10,000 events using a FACScalibur flow cytometer. The data were analyzed using CellQuest (BD Biosciences, Franklin Lakes, NJ, USA) and FlowJo (Tree Star Inc., Ashland, OR, USA) software as in [49]."}, "[5]": {"tested_on": "SCC9 cells", "assay": "Caspase 3/7 activity, flow cytometry", "format": "cell-based, human", "settings": "SCC9, 2× IC50, 48 h", "description": "(§4) Phosphatidylserine exposure analysis (apoptosis). Cells of the SCC9 cell line were plated in 6-well plates (5 × 10^5 cells/well), trypsinized 48 h after treatment, labeled using the Annexin V-FITC Apoptosis Detection Kit according to the manufacturer’s protocol (#BMS500FI/300, Invitrogen), and analyzed by FACScalibur flow cytometry as in [50]. Furthermore, 5 × 10^4 SCC9 cells were plated in a 24-well plate containing 1 mL of DMEM/F12 with 10% FBS per well. CellEvent™ Caspase-3/7 Reagent (#R37111, Invitrogen) was diluted in a culture medium according to the manufacturer’s instructions. […] The cells were analyzed by flow cytometry at the time of 48 h of treatment."}, "[6]": {"tested_on": "SCC9 cells", "assay": "Phosphatidylserine exposure analysis (Annexin V/PI)", "format": "cell-based, human", "settings": "SCC9, 48 h", "description": "as §4"}, "[7]": {"tested_on": "SCC9 cells", "assay": "ROS production (ROS-Glo H2O2 assay)", "format": "cell-based, human", "settings": "SCC9, 2 × IC50, 3, 6, 24 and 48 h", "description": "ROS production. The hydrogen peroxide (H2O2) luminescence assay was performed using the ROS-Glo™ H2O2 assay kit (Promega Corporation, Madison, WI, USA). […] A plate with wells without cells was used as a control. The cells and cell-free wells remained in treatment at the times of interest and, 2 h before the completion of the times, the well volumes were removed to reduce to 40 µL per well. Then, the positive control of menadione, a polycyclic aromatic ketone based on 1,4-naphthoquinone, was used to treat its respective well, and H2O2 substrate was added for all treatments, followed by the incubation of the plate for the 2 h remaining. After the times of 3, 6, 24, and 48 h, the detection solution was added, and the plates remained at room temperature for 20 min, following the reading in the luminometer."}},
  "note": "“And” between values parts separate entries of the source, which are not always exact repeats. Identical values can stand only once.",
  "data": [
    {"smiles": "CC1(C)CC(=O)C2=C(C1)NC1=C(C(=O)c3ccccc3C1=O)C2c1ccc(Cl)cc1Cl", "note": "(stereo not drawn) [4e, 12-(2,4-dichlorophenyl)-3,3-dimethyl-3,4-dihydrobenzo[b]acridine-1,6,11(2H,5H,12H)-trione]", "values": [
      {"measurement": "IC50", "setting": "[1]; Homo sapiens, SCC-9, SCC9, 48 h, MTT (Table 1), read-out: SCC9—Oral Cancer IC50", "result": 14.7, "unit": "µM"},
      {"measurement": "SCC9 S.I.", "setting": "[1]; IC50 normal oral fibroblasts / IC50 SCC9", "result": 6.0},
      {"measurement": "IC50", "setting": "[2]; Homo sapiens, SCC-4, SCC4, 48 h, MTT, read-out: Oral Tumor Cells SCC4 IC50", "result": 53.8, "unit": "µM"},
      {"measurement": "SCC4 S.I.", "setting": "[2]; IC50 normal oral fibroblasts / IC50 SCC4", "result": 1.6},
      {"measurement": "hemolysis at 300 µM", "setting": "[3]", "result": "< 3", "unit": "%"},
      {"measurement": "DNA fragmentation (Sub-G1 DNA-content), cells", "setting": "[4]", "result": "25.5% and ~ 25%"},
      {"measurement": "active caspase 3/7 labeling, cells", "setting": "[5]", "result": "52.4% and ~ 52%"},
      {"measurement": "Annexin V and Annexin V + PI staining", "setting": "[6]", "result": "increased single (Annexin V) and double (Annexin V + PI) staining"},
      {"measurement": "ROS production", "setting": "[7]", "result": "low production of ROS"}
    ]}
  ]
}
